Read-outs that look alike come from different tables or passages of the source.

Assay [1] has as its target T1, [^3 H]-spiroperidol binding (Rattus norvegicus, UniProt P61169).
T1 construct: from tissue; host or cells: brain striatum (own knowledge from the cited method)
Nature of the assay: Inhibition of [^3 H]-spiroperidol binding in a receptor assay. The method, then:
(§1) The compounds of Formula I are valuable dopaminergic agents. […] Thus, the compounds of Formula I were tested for their ability to inhibit locomotor activity in mice according to the assay described by J. R. McLean, et al, Pharmacology, Biochemistry and Behavior, Volume 8, pages 97-99 (1978); for their ability to inhibit [^3 H]-spiroperidol binding in a receptor assay described by D. Grigoriadis and P. Seeman, Journal of Neurochemistry, Volume 44, pages 1925-1935 (1985); and for their ability to inhibit dopamine synthesis in rats according to the protocol described by J. R. Walters and R. H. Roth, Naunyn-Schmiedeberg's Archives of Pharmacology, Volume 296, pages 5-14 (1976). The above test methods are incorporated herein by reference. The data in the table show the dopaminergic activity of representative compounds of Formula I.

The next assay has as its system Brain Dopamine Synthesis. Kind of assay: Inhibition of dopamine synthesis in rats (reversal of brain dopamine synthesis). The class given is in vivo. The settings on record: Rattus norvegicus, IP. How it is done: as §1
Assay [2] relates to locomotor activity in mice. Kind of assay: Inhibition of locomotor activity in mice. It counts as in vivo. The settings on record: Mus musculus, IP. The method, then:
as §1

The mark [3] stands for this setting: read-out: Inhibition of [^3 H]Spiroperidol Binding IC50.

T1 sequence (P61169 whole entry): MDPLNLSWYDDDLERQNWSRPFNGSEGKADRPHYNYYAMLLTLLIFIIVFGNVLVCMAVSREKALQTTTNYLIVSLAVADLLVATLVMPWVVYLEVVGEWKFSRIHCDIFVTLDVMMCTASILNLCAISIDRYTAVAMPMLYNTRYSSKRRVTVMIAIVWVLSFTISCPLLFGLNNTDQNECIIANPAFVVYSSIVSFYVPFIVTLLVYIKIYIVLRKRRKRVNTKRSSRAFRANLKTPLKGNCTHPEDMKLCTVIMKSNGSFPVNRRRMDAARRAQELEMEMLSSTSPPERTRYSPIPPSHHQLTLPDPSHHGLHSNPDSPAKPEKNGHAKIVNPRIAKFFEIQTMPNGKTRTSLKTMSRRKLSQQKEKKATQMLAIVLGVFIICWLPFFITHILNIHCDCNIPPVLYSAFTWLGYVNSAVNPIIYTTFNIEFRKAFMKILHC

In general, IC50 refers to the concentration needed to halve the response being measured. For orientation: inhibition in vivo means the drop in the measured response relative to a control, in per cent. In general, ED50 refers to the dose at which the effect has come halfway, by size or by number of responders. Low readings indicate greater potency, high ones weaker potency. In the case of `C1=C(c2ccccc2)CCN(CCCCc2ccncc2)C1` [Example 1, 4-[4-(3,6-Dihydro-4-phenyl-1(2H)-pyridinyl)butyl]-pyridine], the IC50 in assay [1] turned out to be 96 nM. The inhibition in vivo at 10 mg/kg in the assay on Brain Dopamine Synthesis amounted to 87%. The same compound gave an ED50 in assay [2] of 0.6 mg/kg.
`C1=C(c2cccs2)CCN(CCCCc2ccncc2)C1` [Example 4, 4-[4-[3,6-Dihydro-4-(2-thienyl)-1(2H)-pyridinyl]-butyl]pyridine] registered an IC50 in assay [1] of 690 nM. The compound further had an ED50 in assay [2] of 1.2 mg/kg.
In turn, `C1=C(c2cccs2)CCN(CCCCc2cnc3ccccc3c2)C1` [Example 14] showed an ED50 in assay [2] of 1.5 mg/kg.
Regarding `C1=C(c2ccccc2)CCN(CCCc2ccncc2)C1` [Example 5, 4-[3-(3,6-Dihydro-4-phenyl-1(2H)-pyridinyl)propyl]-pyridine], the inhibition in vivo at 10 mg/kg in the assay with Brain Dopamine Synthesis was found to be 61%. The same compound registered an ED50 in assay [2] of 0.63 mg/kg.
For `C1=C(c2ccccn2)CCN(CCCCc2ccncc2)C1` [Example 2, 2-[1,2,3,6-Tetrahydro-1-[4-(4-pyridinyl)butyl]-4-pyridinyl]pyridine], the IC50 in assay [1] (setting [3]) turned out to be 448 nM. Also, the inhibition in vivo at 10 mg/kg in the assay on Brain Dopamine Synthesis was found to be 88%. In assay [2], this compound had an ED50 of 0.7 mg/kg.
As for `C1=C(c2ccccc2)CCN(CCCCc2cccnc2)C1` [Example 12, 3-[4-(3,6-Dihydro-4-phenyl-1(2H)-pyridinyl)butyl]-pyridine], the IC50 in assay [1] (setting [3]) was 170 nM. Also, the inhibition in vivo at 10 mg/kg in the assay on Brain Dopamine Synthesis worked out at 80%. The compound also registered an ED50 in assay [2] of 0.28 mg/kg.
In the case of `C1=C(c2c[nH]c3ccccc23)CCN(CCCCc2ccncc2)C1` [Example 3], the IC50 in assay [1] (setting [3]) was 398 nM. Also, the ED50 in assay [2] was found to be 5 mg/kg.
Turning to `O=C(CCCN1CC=C(c2ccccc2)CC1)c1ccncc1` [Example 10, 4-(3,6-Dihydro-4-phenyl-1(2H)-pyridinyl)-1-(4-pyridinyl)-1-butanone], the IC50 in assay [1] (setting [3]) worked out at 408 nM. For the same compound, the inhibition in vivo at 10 mg/kg in the assay on Brain Dopamine Synthesis was determined as 57%. This compound also registered an ED50 in assay [2] of 1 mg/kg.
For the compound `C1=C(c2ccccc2)CCN(CCCCc2cnc3ccccc3c2)C1` [Example 13, 3-[4-(3,6-Dihydro-4-phenyl-1(2H)-pyridinyl)butyl]-quinoline], in assay [1], the IC50 was found to be 46 nM. For the same compound, the inhibition in vivo at 10 mg/kg in the assay on Brain Dopamine Synthesis is 100%. Also, the 50% effect level in assay [2] (ED50) was put at a dose of 0.37 mg/kg.
As to `O=C(CCCN1CC=C(c2ccccc2)CC1)c1cccnc1` [Example 9, 4-(3,6-Dihydro-4-phenyl-1(2H)-pyridinyl)-1-(3-pyridinyl)-1-butanone], in the assay on Brain Dopamine Synthesis, the inhibition in vivo at 10 mg/kg was 50%. Also, in assay [2], it took a dose of 1.1 mg/kg to reach the 50% effect level (ED50).
In the case of `C1=C(c2cccs2)CCN(CCCCc2cccnc2)C1` [Example 8, 3-[4-[3,6-Dihydro-4-(2-thienyl)-1(2H)-pyridinyl]-butyl]pyridine], the IC50 in assay [1] (setting [3]) turned out to be 1290 nM. Also, in the assay on Brain Dopamine Synthesis, the inhibition in vivo at 10 mg/kg amounted to 71%. The same compound registered a median effective dose (ED50) in assay [2] of 0.66 mg/kg.
In assay [2], `C1=C(c2ccccc2)CCN(CCCCCc2ccncc2)C1` [Example 7, 4-[5-(3,6-Dihydro-4-phenyl-1(2H)-pyridinyl)pentyl]-pyridine] came in with an ED50 of 0.9 mg/kg.
Still for that read-out and setting: in the case of `C1=C(c2ccccn2)CCN(CCCCc2cnc3ccccc3c2)C1` [Example 15, 3-[4-[3,6-Dihydro-4-(2-pyridinyl)-1(2H)-pyridinyl]-butyl]quinoline] it was 0.14 mg/kg.

For the origin of these results see US5118691A, “Substituted tetrahydropyridines as central nervous system agents” (Warner-Lambert Co., priority 1991, dated 1992).
